Test results taken from patent US11186534B2, “Derivatives of sulindac can protect normal cells against oxidative damage” (University of South Alabama, priority 2017, dated 2021).

Key:
[1] = system: Retinal pigmented epithelium cells (ARPE-19); test: Cell viability assay: protection of RPE cells against oxidative damage from TBHP; type: cell-based; settings: for Cyto-protective activity*: RPE cells, TBHP as oxidizing agent, relative to Sulindac; for Cyto-protective activity*: key: active = more active than Sulindac; inactive = less active than Sulindac
Experimental: Cultured cells and reagents: Retinal pigmented epithelium cells (ARPE-19) were obtained from American Type Culture Collection (ATCC, Manassas, Va.) and cultured at 37° C. in 5% CO2. All chemicals were purchased from Sigma unless specified.
Cell viability assay: Cells were cultured and assayed for cell viability essentially as described previously (14). ARPE-19 cells were plated at 10,000 cells per well in a 96-well plate. The cells were grown for 18-20 hours, the medium discarded in aseptic conditions and replaced with fresh culture medium containing the indicated drug concentration. The plates were incubated for 24 hours at 37° C. in a 5% CO2 incubator in the presence of sulindac or Compound 9. To examine the treatment effects on oxidative damage to RPE cells, cells were washed and incubated in media without serum with various concentrations of tert-butyl hydroperoxide (TBHP) for an additional 24h. The culture medium was then discarded and the cells were thoroughly rinsed in PBS. Cell viability was determined by using the Cell Titer 96 Aqueous One Cell Proliferation Assay (Promega) according to the manufacturer's instructions. The assay utilizes a tetrazolium compound that is converted into a water-soluble formazan by the action of cellular NADH oxidase activity in metabolically active cells. The formazan was quantified by measuring the absorbance at 490 nm using a colorimetric microtiter plate reader (SpectraMax Plus; Molecular Devices).
In the present studies, a series of compounds were identified as having the ability to protect RPE cells against oxidative damage using tert-butyl hydroperoxide (TBHP), an organic peroxide, as an oxidizing agent (10).

COX = settings: background; cited from earlier work
cells [2] = settings: background; cited from earlier work
cells [3] = settings: background; cited from earlier work; remark: listed apart in the source
[4] = system: rat intact hearts (Langendorff model); test: Langendorff model of ischemia/reperfusion injury, LDH release; type: in vivo, Sprague Dawley rats; settings: 0.7 mg/kg i.p. daily for 48 h; FIG. 9
Experimental: The ex vivo Langendorff procedure is a well-established preparation used to investigate heart physiology, ischemia/reperfusion injury, and other cardiovascular insults (23, 24; also see, e.g., reference 22). Sprague Dawley rats (275-325g) were administered either no drug or Compound 9 daily (at 0.7 mg/kg) for a total of two days (two administrations in total). Forty-eight hours after the start of drug exposure, hearts were removed and exposed to 45 min no flow ischemia and 2 h reperfusion in the Langendorff model (hearts were first equilibrated in KHB buffer for 10 min and then subjected to 45 min ischemia followed by 2 h reperfusion with KHB buffer), in the absence of drug.
In LDH and TTC assays for the Langendorff Preparation, coronary effluent samples (500 μL) from the Langendorff preparation were obtained upon attachment of excised heart, every 15 min before ischemia, immediately after 45 min ischemia, and at 15 min intervals during reperfusion. LDH was measured (using a Cytotox-96 nonradioactive cytotoxicity assay kit (Promega), with the absorbance read at 490 nm). Immediately upon completion, the heart was sliced into 2-mm cross-sectional pieces and slices were incubated for 30 min with 1% 2,3,5-triphenyl tetrazolium chloride (TTC) stain in Krebs-Henseleit buffer (KHB) (pH=7.4) at 37° C. to distinguish between viable (red) and nonviable (white) tissue. Tissue slices were stored overnight in 10% formaldehyde before measurement of infarct size using NIH-Image J software.
The protective (preconditioning) effect of Compound 9 was evaluated in an art-recognized Langendorff model of ischemia/reperfusion injury. Compound 9 was administered via i.p. injection to test animals daily for two days, and animal hearts were then removed for performance of the Langendorff procedure (described above and known in the art).

Row | SMILES | Cyto-protective activity* [1] | other results
1 | CC1=C(CC(=O)[O-])c2cc(F)ccc2/C1=C\c1ccc(N(C)C)cc1.[Na+] [Compound 2, sodium (Z)-2-(1-(4-(dimethylamino)benzylidene)-5-fluoro-2-methyl-1H-inden-3-yl)acetate] | inactive | –
2 | COc1ccc2c(c1)/C(=C\c1cc(OC)c(OC)c(OC)c1)C(C)=C2CC(=O)O [Compound 3, (Z)-2-(6-methoxy-2-methyl-1-(3,4,5-trimethoxybenzylidene)-1H-inden-3-yl)acetic acid] | inactive | –
3 | COc1ccc2c(c1)C(CC(=O)O)=C(C)/C2=C/c1ccc(SC(F)(F)F)cc1 [Compound 4, (Z)-2-(5-methoxy-2-methyl-1-(4-((trifluoromethyl)thio)benzylidene)-1H-inden-3-yl)acetic acid] | inactive | –
4 | COc1ccc2c(c1)C(CC(=O)O)=C(C)/C2=C/c1cc(OC)c(Br)c(OC)c1 [Compound 5, (Z)-2-(1-(4-bromo-3,5-dimethoxybenzylidene)-5-methoxy-2-methyl-1H-inden-3-yl)acetic acid] | inactive | –
5 | COc1ccc2c(c1)C(CC(=O)O)=C(C)/C2=C/c1ccc(N(C)C)cc1 [Compound 6, (Z)-2-(1-(4-(dimethylamino)benzylidene)-5-methoxy-2-methyl-1H-inden-3-yl)acetic acid] | inactive | –
6 | COc1cc(/C=C2/C(C)=C(CC(=O)O)c3cc(OC)ccc32)cc(OC)c1 [Compound 7, (Z)-2-(1-(3,5-dimethoxybenzylidene)-5-methoxy-2-methyl-1H-inden-3-yl)acetic acid] | inactive | –
7 | COc1cc(/C=C2/C(C)=C(CC(=O)O)c3cc(C)ccc32)cc(OC)c1OC [Compound 8, (Z)-2-(2,5-dimethyl-1-(3,4,5-trimethoxybenzylidene)-1H-inden-3-yl)acetic acid] | inactive | –
8 | COc1ccc2c(c1)C(CC(=O)O)=C(C)/C2=C/c1ccc(OCc2ccccc2)cc1 [Compound 10, (Z)-2-(1-(4-(benzyloxy)benzylidene)-5-methoxy-2-methyl-1H-inden-3-yl)acetic acid] | active | Effectiveness in protecting RPE cells from TBHP compared with sulindac ([1]; compound at 25 μM vs sulindac 200 μM, FIG. 2): equally effective as sulindac; Fold lower effective concentration relative to sulindac (RPE cell protection) ([1]; sulindac 200 μM, Compound 10 at 25 μM, Compound 9 at 10 μM): 8 ×
9 | COc1ccc2c(c1)C(CC(=O)O)=C(C)/C2=C/c1cc(OC)c(OC)c(OC)c1 [Compound 11, (Z)-2-(5-methoxy-2-methyl-1-(3,4,5-trimethoxybenzylidene)-1H-inden-3-yl)acetic acid] | inactive | –
10 | COc1cc(/C=C2/C(C)=C(CC(=O)O)c3cc(F)ccc32)cc(OC)c1OC [Compound 12, (Z)-2-(5-fluoro-2-methyl-1-(3,4,5-trimethoxybenzylidene)-1H-inden-3-yl)acetic acid] | inactive | –
11 | COc1ccc2c(c1)C(CC(=O)O)=C(C)/C2=C/c1ccc(O)c(OC)c1 [Compound 13, (Z)-2-(1-(4-hydroxy-3-methoxybenzylidene)-5-methoxy-2-methyl-1H-inden-3-yl)acetic acid] | inactive | –
12 | COc1cc2c(cc1OC)/C(=C\c1ccc3c(c1)OCO3)C(C)=C2CC(=O)O [Compound 14, (Z)-2-(1-(benzo[d][1,3]dioxol-5-ylmethylene)-5,6-dimethoxy-2-methyl-1H-inden-3-yl)acetic acid] | inactive | –
13 | COc1ccc2c(c1)C(CC(=O)O)=C(C)/C2=C/c1ccc(OC)c(O)c1 [Compound 15, (Z)-2-(1-(3-hydroxy-4-methoxybenzylidene)-5-methoxy-2-methyl-1H-inden-3-yl)acetic acid] | inactive | –
14 | COc1ccc2c(c1)C(CC(=O)O)=C(C)/C2=C/c1cc(Br)c(O)c(OC)c1 [Compound 16, (Z)-2-(1-(3-bromo-4-hydroxy-5-methoxybenzylidene)-5-methoxy-2-methyl-1H-inden-3-yl)acetic acid] | inactive | –
15 | COc1cc(/C=C2/C(C)=C(CC(=O)O)c3cc(OC)c(OC)cc32)cc(OC)c1 [Compound 17, (Z)-2-(1-(3,5-dimethoxybenzylidene)-5,6-dimethoxy-2-methyl-1H-inden-3-yl)acetic acid] | inactive | –
16 | COc1cc2c(cc1OC)/C(=C\c1cc(OC)c(O)c(OC)c1)C(C)=C2CC(=O)NCc1ccco1 [Compound 18, (Z)-N-(furan-2-ylmethyl)-2-(1-(4-hydroxy-3,5-dimethoxybenzylidene)-5,6-dimethoxy-2-methyl-1H-inden-3-yl)acetamide] | inactive | –
17 | COc1ccc2c(c1)C(Cc1nc3cnccc3[nH]1)=C(C)/C2=C/c1cc(OC)c(OC)c(OC)c1 [Compound 19, (Z)-2-((5-methoxy-2-methyl-1-(3,4,5-trimethoxybenzylidene)-1H-inden-3-yl)methyl)-1H-imidazo[4,5-c]pyridine] | inactive | –
18 | COc1cc2c(cc1OC)/C(=C\c1cc(OC)c(OC)c(OC)c1)C(C)=C2CC(=O)NCc1ccco1 [Compound 20, (Z)-2-(5,6-dimethoxy-2-methyl-1-(3,4,5-trimethoxybenzylidene)-1H-inden-3-yl)-N-(furan-2-ylmethyl)acetamide] | inactive | –
19 | COc1cc(/C=C2/C(C)=C(CC(=O)NCc3ccco3)c3cc(OC)c(OC)cc32)cc(OC)c1 [Compound 21, (Z)-2-(1-(3,5-dimethoxybenzylidene)-5,6-dimethoxy-2-methyl-1H-inden-3-yl)-N-(furan-2-ylmethyl)acetamide] | inactive | –
20 | COc1cc2c(cc1OC)/C(=C\c1ccc(N(C)C)cc1)C(C)=C2CC(=O)NCc1ccco1 [Compound 22, (Z)-2-(1-(4-(dimethylamino)benzylidene)-5,6-dimethoxy-2-methyl-1H-inden-3-yl)-N-(furan-2-ylmethyl)acetamide] | inactive | –
21 | COc1ccc2c(c1)C(CC(=O)O)=C(C)/C2=C/c1cc(OC)c(O)c(OC)c1 [Compound 23, (Z)-2-(1-(4-hydroxy-3,5-dimethoxybenzylidene)-5-methoxy-2-methyl-1H-inden-3-yl)acetic acid] | inactive | –
22 | CC1=C(CC(=O)O)c2cc(F)ccc2/C1=C\c1ccc(S(C)(=O)=O)cc1 [Sulindac sulfone] | – | COX inhibitory activity (COX): no COX inhibitory activity; Activity in protecting cells against oxidative damage relative to sulindac (cells [2]): more active than sulindac; Toxicity to cells relative to sulindac (cells [3]): significantly more toxic
23 | CC1=C(CC(=O)O)c2cc(F)ccc2/C1=C\c1ccc([S+](C)[O-])cc1 (centres unmarked) [sulindac] | – | Protective effect during the 45 min ischemia phase [4]: no protective effect; Protective effect during the 2 h reperfusion phase [4]: not as robust; TBHP concentration above which no longer protective for RPE cells ([1]; sulindac at 200 μM, FIG. 2): above 300 μM
